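How tested: cells in 96-well plates exposed to compound for 48 hours at five concentrations. GI50 = concentration required for 50% inhibition of growth. Definition used: TGI = concentration required for complete inhibition of growth.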
Experiments:
Assay in all cases: inhibition of tumour cell growth, NCI panel, 48 h
[1] = tested on: SNB-75 CNS
[2] = tested on: U251 CNS
[3] = tested on: 786-0 renal
[4] = tested on: CCRF-CEM leukemia
[5] = tested on: SF-539 CNS
[6] = tested on: CAKI-1 renal
[7] = tested on: A498 renal
[8] = tested on: SF-295 CNS
[9] = tested on: MDA-MB-231 breast
[10] = tested on: SK-OV-3 ovarian

| Structure (SMILES) | GI50 [1] | TGI [1] | GI50 [2] | TGI [2] | GI50 [3] | TGI [3] | GI50 [4] | TGI [4] | GI50 [5] | TGI [5] | GI50 [6] | TGI [6] | GI50 [7] | TGI [7] | GI50 [8] | TGI [8] | GI50 [9] | TGI [9] | GI50 [10] | TGI [10] |
| --- | --- | --- | --- | --- | --- | --- | --- | --- | --- | --- | --- | --- | --- | --- | --- | --- | --- | --- | --- | --- |
| O=C1C(Cl)=C(Nc2cccc(F)c2)C(=O)N1Cc1ccc(Cl)cc1 | 0.438 µM | 7.63 µM | 0.337 µM | > 32 µM | 0.305 µM | 3.98 µM | 0.118 µM | 11.1 µM | 1.03 µM | 4.04 µM | 1.71 µM | 13.8 µM | 2.42 µM | 8.99 µM | 1.16 µM | 10.9 µM | 0.242 µM | 4.7 µM | 2.59 µM | 17.6 µM |
| COC(=O)c1ccc(-c2nc3cc(Cl)c(Cl)cc3nc2C#N)cc1 | > 100 µM | > 100 µM | 42 µM | > 100 µM | > 100 µM | > 100 µM | 31.6 µM | > 100 µM | > 100 µM | > 100 µM | > 100 µM | > 100 µM | > 100 µM | > 100 µM | > 100 µM | > 100 µM | > 100 µM | > 100 µM | > 100 µM | > 100 µM |
| O=C(c1ccccc1)c1ccccc1-c1ccccc1 | 2.11 µM | 19.8 µM | 4.21 µM | 46.2 µM | 10.6 µM | 90.7 µM |  |  | 3.06 µM | 15.3 µM | 1.52 µM | 7.85 µM | 2.08 µM | 15.6 µM | 1.85 µM | 29 µM | 5.14 µM | > 100 µM | 3.54 µM | 25.2 µM |
| COc1cc(/C=C\c2cc(OC)c(OC)c(OC)c2)cc(NC(=O)/C=C/c2cc(OC)c(OC)c(OC)c2)c1OC | 1.82 µM | > 100 µM | 6.71 µM | > 100 µM | 6.22 µM | > 100 µM | 2.67 µM | > 100 µM | 7.58 µM | > 100 µM | 2.8 µM | > 100 µM | 5.21 µM | > 100 µM |  |  | 5.43 µM | > 100 µM | 6.62 µM | > 100 µM |
| O=C(Nc1ccc([As](=O)(O)O)cc1)Nc1cccc(Cl)c1Cl |  | 65.4 µM |  | > 100 µM |  | > 100 µM |  |  |  | > 100 µM |  | > 100 µM |  | > 100 µM |  | > 100 µM |  | > 100 µM |  | > 100 µM |
| C=C1C(=O)O[C@H]2[C@H]1CC/C(CNC(=O)/C=C/c1cc(OC)c(OC)c(OC)c1)=C\CC[C@@]1(C)O[C@@H]21 | 2.93 µM | 22.9 µM | 4.23 µM | 16.4 µM | 1.29 µM | 2.9 µM | 0.478 µM | 4.37 µM | 2 µM | 5.93 µM |  |  | 4.1 µM | 15.7 µM | 4.61 µM | 18.2 µM | 3.01 µM | 14.1 µM | 17.2 µM | 33.3 µM |
| C=C(C)[C@@H]1CC[C@]2(C)CC[C@]3(C)[C@H](CC[C@@H]4[C@@]5(C)CC[C@H](O)C(C)(C)[C@@H]5CC[C@]43C)[C@@H]12 |  | > 80.1 µM |  | 41 µM |  | > 63.8 µM |  | 48.9 µM |  | > 100 µM |  | > 100 µM |  | 32.6 µM |  | > 82.7 µM |  | > 100 µM |  |  |
